From patent publication US20240376100A1 (Redona Therapeutics, Inc., priority 2021, published 2024)
Where a name gives a salt, the structure may show the parent alone.

target: PAPD5 enzyme (Homo sapiens, UniProt Q8NDF8); assay: PAPD5 assay (AMP incorporation onto 3'-terminus of RNA substrate, fluorescence quench); type: biochemical; details: PAPD5 protein 0.3 nM, ATP 50 μM, 30 minutes preincubation, room temperature; read-out: Potency PAPD5 IC50
How it was run: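 Enzyme at 0.3 nM with 50 μM ATP, pH 7.3 HEPES buffer, preincubated with compound 30 minutes at room temperature; 5 nM 5′-fluorescein RNA substrate and 20 nM TAMRA quench probe then added. Initial rates from kinetic fluorescein decrease over ~90 minutes; IC50 by four-parameter fit.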

Sequence of PAPD5 enzyme (Q8NDF8 whole entry): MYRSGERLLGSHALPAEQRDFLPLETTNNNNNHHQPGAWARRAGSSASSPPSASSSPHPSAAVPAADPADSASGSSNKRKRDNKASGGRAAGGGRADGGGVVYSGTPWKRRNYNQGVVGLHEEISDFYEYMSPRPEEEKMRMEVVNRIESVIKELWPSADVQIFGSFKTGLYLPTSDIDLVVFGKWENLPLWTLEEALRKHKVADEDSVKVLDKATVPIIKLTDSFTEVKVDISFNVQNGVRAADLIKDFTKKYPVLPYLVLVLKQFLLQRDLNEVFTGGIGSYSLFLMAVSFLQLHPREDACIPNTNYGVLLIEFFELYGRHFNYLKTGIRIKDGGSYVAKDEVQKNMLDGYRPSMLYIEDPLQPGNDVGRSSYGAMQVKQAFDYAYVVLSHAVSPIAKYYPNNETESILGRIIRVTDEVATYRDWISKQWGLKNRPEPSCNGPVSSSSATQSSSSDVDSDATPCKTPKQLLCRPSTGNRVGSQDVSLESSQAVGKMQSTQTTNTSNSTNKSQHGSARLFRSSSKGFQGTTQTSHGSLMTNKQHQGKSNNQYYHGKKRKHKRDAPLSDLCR

IC50, ≤ 1000 nM:
Cc1cc(NC(=O)OC(C)(C)C)ncc1-n1cc(C(=O)O)c(=O)c2cc(F)c(N3CCc4ccccc4C3)cc21 [Example 184, 1-(6-((tert-butoxycarbonyl)amino)-4-methylpyridin-3-yl)-7-(3,4-dihydroisoquinolin-2(1H)-yl)-6-fluoro-4-oxo-1,4-dihydroquinoline-3-carboxylic acid]
Cc1cc(NC(=O)OC(C)(C)C)ncc1-n1cc(C(=O)O)c(=O)c2cc(Cl)c(N3CCc4ccncc4C3)nc21 [Example 187, 1-(6-((tert-butoxycarbonyl)amino)-4-methylpyridin-3-yl)-6-chloro-7-(3,4-dihydro-2,7-naphthyridin-2(1H)-yl)-4-oxo-1,4-dihydro-1,8-naphthyridine-3-carboxylic acid]
Cc1cc(N(C)CCN(C)C)ncc1-n1cc(C(=O)O)c(=O)c2cc(Cl)c(N3Cc4cccnc4C3)nc21 [Example 192, 6-chloro-7-(5,7-dihydro-6H-pyrrolo[3,4-b]pyridin-6-yl)-1-(6-((2-(dimethylamino)ethyl)(methyl)amino)-4-methylpyridin-3-yl)-4-oxo-1,4-dihydro-1,8-naphthyridine-3-carboxylic acid]
O=C(O)c1cn(-c2ccc(O)cc2F)c2cc(N3Cc4ccccc4C3)c(Cl)cc2c1=O [Example 30, 6-chloro-1-(2-fluoro-4-hydroxyphenyl)-7-(isoindolin-2-yl)-4-oxo-1,4-dihydroquinoline-3-carboxylic acid]
COCCOc1ccc(-n2cc(C(=O)O)c(=O)c3cc(C#N)c(N4Cc5cccnc5C4)cc32)cn1 [Example 58, 6-cyano-7-(5,7-dihydro-6H-pyrrolo[3,4-b]pyridin-6-yl)-1-(6-(2-methoxyethoxy)pyridin-3-yl)-4-oxo-1,4-dihydroquinoline-3-carboxylic acid]
CN(C)C1CN(c2ccc(-n3cc(C(=O)O)c(=O)c4cc(Cl)c(N5Cc6cccnc6C5)nc43)cn2)C1 [Example 22, 6-chloro-7-(5,7-dihydro-6H-pyrrolo[3,4-b]pyridin-6-yl)-1-(6-(3-(dimethylamino)azetidin-1-yl)pyridin-3-yl)-4-oxo-1,4-dihydro-1,8-naphthyridine-3-carboxylic acid]
Cc1cc(N)ncc1-n1cc(C(=O)O)c(=O)c2cc(F)c(N3Cc4cccnc4C3)nc21 [Example 77, 1-(6-amino-4-methylpyridin-3-yl)-7-(5,7-dihydro-6H-pyrrolo[3,4-b]pyridin-6-yl)-6-fluoro-4-oxo-1,4-dihydro-1,8-naphthyridine-3-carboxylic acid TFA salt]
Cc1cc(NC(=O)OC(C)(C)C)ncc1-n1cc(C(=O)O)c(=O)c2ccc(N3Cc4cccnc4C3)cc21 [Example 136, 1-(6-((tert-butoxycarbonyl)amino)-4-methylpyridin-3-yl)-7-(5,7-dihydro-6H-pyrrolo[3,4-b]pyridin-6-yl)-4-oxo-1,4-dihydroquinoline-3-carboxylic acid]
COCCNc1cc(C)c(-n2cc(C(=O)O)c(=O)c3cc(Cl)c(N4Cc5cccnc5C4)nc32)cn1 [Example 151, 6-chloro-7-(5,7-dihydro-6H-pyrrolo[3,4-b]pyridin-6-yl)-1-(6-((2-methoxyethyl)amino)-4-methylpyridin-3-yl)-4-oxo-1,4-dihydro-1,8-naphthyridine-3-carboxylic acid]
Cc1cc(NS(C)(=O)=O)ncc1-n1cc(C(=O)O)c(=O)c2cc(Cl)c(N3Cc4cccnc4C3)nc21 [Example 200, 6-chloro-7-(5,7-dihydro-6H-pyrrolo[3,4-b]pyridin-6-yl)-1-(4-methyl-6-(methylsulfonamido)pyridin-3-yl)-4-oxo-1,4-dihydro-1,8-naphthyridine-3-carboxylic acid]
Cc1cc(N)ncc1-n1cc(C(=O)O)c(=O)c2cc(Cl)c(N3Cc4cncnc4C3)nc21 [Example 179, 1-(6-amino-4-methylpyridin-3-yl)-6-chloro-7-(5,7-dihydro-6H-pyrrolo[3,4-d]pyrimidin-6-yl)-4-oxo-1,4-dihydro-1,8-naphthyridine-3-carboxylic acid]
O=C(O)c1cn(Cc2ccncc2)c2nc(N3Cc4cccnc4C3)c(Cl)cc2c1=O [Example 66, 6-chloro-7-(5,7-dihydro-6H-pyrrolo[3,4-b]pyridin-6-yl)-4-oxo-1-(pyridin-4-ylmethyl)-1,4-dihydro-1,8-naphthyridine-3-carboxylic acid]
COCCN1CCC(Cn2cc(C(=O)O)c(=O)c3cc(Cl)c(N4Cc5cccnc5C4)nc32)CC1 [Example 100, 6-chloro-7-(5,7-dihydro-6H-pyrrolo[3,4-b]pyridin-6-yl)-1-((1-(2-methoxyethyl)piperidin-4-yl)methyl)-4-oxo-1,4-dihydro-1,8-naphthyridine-3-carboxylic acid hydro chloride]
Cc1cc(N)ncc1-n1cc(C(=O)O)c(=O)c2cc(Cl)c(N3Cc4cccnc4C3)cc21 [Example 5, 1-(6-amino-4-methylpyridin-3-yl)-6-chloro-4-oxo-7-{5H,6H,7H-pyrrolo[3,4-b]pyridin-6-yl}-1,4-dihydroquinoline-3-carboxylicacid hydrochloride]
COc1cnc(-n2cc(C(=O)O)c(=O)c3cc(Cl)c(N4Cc5cccnc5C4)cc32)cn1 [Example 76, 6-chloro-7-(5,7-dihydro-6H-pyrrolo[3,4-b]pyridin-6-yl)-1-(5-methoxypyrazin-2-yl)-4-oxo-1,4-dihydroquinoline-3-carboxylic acid]
CCOC(=O)c1cn(-c2ccc(O)nc2)c2cc(N3Cc4cccnc4C3)c(Cl)cc2c1=O [Example 88, Ethyl 6-chloro-1-(6-hydroxypyridin-3-yl)-4-oxo-7-{5H,7H-pyrrolo[3,4-b]pyridin-6-yl}quinoline-3-carboxylate]
COc1cc2c(=O)c(C(=O)O)cn(-c3cnc(NC(=O)OC(C)(C)C)cc3C)c2cc1N1Cc2cccnc2C1 [Example 135, 1-(6-((tert-butoxycarbonyl)amino)-4-methylpyridin-3-yl)-7-(5,7-dihydro-6H-pyrrolo[3,4-b]pyridin-6-yl)-6-methoxy-4-oxo-1,4-dihydroquinoline-3-carboxylic acid]
COc1cccc(Cn2cc(C(=O)O)c(=O)c3cc(Cl)c(N4Cc5cccnc5C4)nc32)c1 [Example 42, 6-chloro-7-(5,7-dihydro-6H-pyrrolo[3,4-b]pyridin-6-yl)-1-(3-methoxybenzyl)-4-oxo-1,4-dihydro-1,8-naphthyridine-3-carboxylic acid]
Cc1ccnc2c1CN(c1nc3c(cc1Cl)c(=O)c(C(=O)O)cn3-c1cnccn1)C2 [Example 64, 6-chloro-7-(4-methyl-5,7-dihydro-6H-pyrrolo[3,4-b]pyridin-6-yl)-4-oxo-1-(pyrazin-2-yl)-1,4-dihydro-1,8-naphthyridine-3-carboxylic acid]
Cc1cc(N2CCC2)ncc1-n1cc(C(=O)O)c(=O)c2cc(F)c(N3Cc4cccnc4C3)cc21 [Example 190, 1-(6-(azetidin-1-yl)-4-methylpyridin-3-yl)-7-(5,7-dihydro-6H-pyrrolo[3,4-b]pyridin-6-yl)-6-fluoro-4-oxo-1,4-dihydroquinoline-3-carboxylic acid]
Cc1cc(N2CCC2)ncc1-n1cc(C(=O)O)c(=O)c2cc(Cl)c(N3Cc4cccnc4C3)nc21 [Example 91, 1-(6-(azetidin-1-yl)-4-methylpyridin-3-yl)-6-chloro-7-(5,7-dihydro-6H-pyrrolo[3,4-b]pyridin-6-yl)-4-oxo-1,4-dihydro-1,8-naphthyridine-3-carboxylic acid]
Cc1cc(N)ncc1-n1cc(C(=O)O)c(=O)c2ccc(N3Cc4cccnc4C3)c(F)c21 [Example 154, 1-(6-amino-4-methylpyridin-3-yl)-7-5,7-dihydro-6H-pyrrolo[3,4-b]pyridin-6-yl)-8-fluoro-4-oxo-1,4-dihydroquinoline-3-carboxylic acid hydrochloride]
Cc1cc(N)ncc1-n1cc(C(=O)O)c(=O)c2cc(Cl)c(N3CCc4ccncc4C3)nc21 [Example 185, 1-(6-amino-4-methylpyridin-3-yl)-6-chloro-7-(3,4-dihydro-2,7-naphthyridin-2(1H)-yl)-4-oxo-1,4-dihydro-1,8-naphthyridine-3-carboxylic acid]
O=C(O)c1cn(Cc2cccnc2)c2nc(N3Cc4cccnc4C3)c(Cl)cc2c1=O [Example 67, 6-chloro-7-(5,7-dihydro-6H-pyrrolo[3,4-b]pyridin-6-yl)-4-oxo-1-(pyridin-3-ylmethyl)-1,4-dihydro-1,8-naphthyridine-3-carboxylic acid]
Cc1cc(NC(=O)OC(C)(C)C)ncc1-n1cc(C(=O)O)c(=O)c2cc(Cl)c(N3Cc4ccccc4C3)nc21 [Example 165, 1-(6-((tert-butoxycarbonyl)amino)-4-methylpyridin-3-yl)-6-chloro-7-(isoindolin-2-yl)-4-oxo-1,4-dihydro-1,8-naphthyridine-3-carboxylic acid]
Cc1cc(N)ncc1-n1cc(C(=O)O)c(=O)c2cc(Cl)c(N3CCc4ncncc4C3)nc21 [Example 198, 1-(6-amino-4-methylpyridin-3-yl)-6-chloro-7-(7,8-dihydropyrido[4,3-d]pyrimidin-6(5H)-yl)-4-oxo-1,4-dihydro-1,8-naphthyridine-3-carboxylic acid]
O=C(O)c1cn(-c2ccc(O)cc2F)c2cc(-n3ncc4cccc(Br)c43)c(F)cc2c1=O [Example 9, 7-(7-bromo-1H-indazol-1-yl)-6-fluoro-1-(2-fluoro-4-hydroxyphenyl)-4-oxo-1,4-dihydroquinoline-3-carboxylic acid]
